We go through 15 compounds from patent publication EP0383919A1, “STAUROSPORIN DERIVATIVES” (KYOWA HAKKO KOGYO CO., LTD., priority 1988, dated 1989).

Values after ≈ are worked out from the molar mass of the structure shown. Where two headings read alike, the source gives them in different places. Some results are limits rather than exact numbers.

One assay relates to HeLa S3 cells. Nature of the assay: HeLa S3 cell growth inhibition assay. It is filed as cell-based. The conditions noted are these: for IC50: Homo sapiens, HeLa S3, 72 h, read-out: IC50 HeLa S3. Here is the method:
(1) HeLa S3 cell growth inhibition assay:
A suspension of HeLa S3 cells (3 x 10^4 cells/ml) in MEM containing 10% fetal serum and 2 mM glutamine is distributed in 0.1 ml portions into the wells of a 96-well microtiter plate and incubated overnight in a C02 incubator at 37°C. Then, 0.05 ml portions of an appropriately diluted solution of the test compound are added. The cells are further cultured in the C02 incubator and the culture supernatant is discarded. After washing with PBS (-) once, 0.1 ml portions of fresh medium are added to the wells and the incubation is continued in the C02 incubator at 37°C for 72 hours. After the culture supernatant is discarded, 0.1 ml portions of culture medium containing 0.02% neutral red are added to the respective wells and the microtiter plate is incubated in the C02 incubator at 37°C for 1 hour to stain the cells. After removal of the culture supernatant, the plate is washed with physiological saline once and the dye is extracted with 0.001 N HC1/30% ethanol. Then, using a microplate reader, the absorbances at 550 nm are measured.

The next assay deals with CoLo 320DM cells. Nature of the assay: CoLo 320DM cell growth inhibition assay. In kind it is cell-based. The conditions noted are these: Homo sapiens, read-out: IC50 CoLo 320DM. Here is the method: (2) CoLo 320DM cell growth inhibition assay:
Then, the same procedure as (1) is followed and the counting of cells is carried out with a microcell counter.

The next assay concerns the target T1, Protein kinase A (Bos taurus, UniProt P00517).
T1 construct: a crude enzyme (partially purified from the calf heart by the method of Kuo et al.); from tissue; host or cells: calf heart
Put plainly: biochemical. Conditions: crude enzyme partially purified from the calf heart, histone type IIS, c-AMP. Here is the method:
(2) Protein kinase A inhibition assay:
Then, the same procedure as the above-described protein kinase C inhibition assay is carried out to calculate IC50.

Where [1] appears, read: 50% growth inhibition concentration, neutral red staining, absorbance at 550 nm, 72 hours incubation after washing.
[2] abbreviates: 50% cell growth inhibition concentration, cell counting with a microcell counter.
Setting [3] is: read-out: IC50 Protein kinase A (converted).

For the compound `CNC1CC2OC(C)(C1OC)n1c3ccccc3c3c4c(c5c6ccccc6n2c5c31)C(=O)NC4OC(C)C` (stereo not drawn) [Compound 18], in the assay with HeLa S3 cells (setting [1]), the IC50 was determined as 0.29 µg/mL (≈ 0.553 µM).

With `COC1C(N(C)C(=O)CN)CC2OC1(C)n1c3ccccc3c3c4c(c5c6ccccc6n2c5c31)C(=O)NC4` (stereo not drawn) [Compound 10], the IC50 was 0.051 µg/mL (≈ 0.0974 µM) with HeLa S3 cells (setting [1]) and 0.55 µg/mL (≈ 1.05 µM) in the assay with CoLo 320DM cells (setting [2]).

Turning to `CNC1CC2OC(C)(C1OC)n1c3ccccc3c3c4c(c5c6ccccc6n2c5c31)C(=O)NC4OC` (single isomer, unassigned) [Compound 17], the results for the IC50 with HeLa S3 cells (setting [1]) and at Protein kinase A (setting [3]) were 0.16 µg/mL (≈ 0.322 µM) and 242 nM, respectively.

Consider `CCCCOC1NC(=O)c2c1c1c3ccccc3n3c1c1c2c2ccccc2n1C1CC(NC)C(OC)C3(C)O1` (stereo not drawn) [Compound 19], for which the IC50 with HeLa S3 cells is 0.32 µg/mL (≈ 0.594 µM).

The compound `CNC1CC2OC(C)(C1OC)n1c3ccccc3c3c4c(c5c6ccccc6n2c5c31)C(=O)NC4=O` (stereo not drawn) [Compound 15] showed an IC50 on Protein kinase A (IC50 Protein kinase A) of 27.1 nM.

Regarding `CN[C@@H]1C[C@H]2O[C@@](C)([C@@H]1OC)n1c3ccccc3c3c4c(c5c6ccccc6n2c5c31)C(=O)N[C@@H]4O` [UCN-01, reference compound], the IC50 in the assay on HeLa S3 cells was 0.17 µg/mL (≈ 0.352 µM); on Protein kinase A (IC50 Protein kinase A) it was 41.4 nM.

Regarding `CNC1CC2OC(C)(C1OC)n1c3ccccc3c3c4c(c5c6ccccc6n2c5c31)C(=O)NC4OC` (single isomer, unassigned) [Compound 16], the “IC50 HeLa S3” value with HeLa S3 cells (setting [1]) came out at 0.20 µg/mL (≈ 0.403 µM). The IC50 on Protein kinase A (setting [3]) was 383 nM.

For `COC1C(N(C)C(C)=O)CC2OC1(C)n1c3ccccc3c3c4c(c5c6ccccc6n2c5c31)C(=O)NC4=O` (stereo not drawn) [Compound 13], on Protein kinase A (setting [3]), the concentration for half-maximal inhibition (IC50) is 68.9 nM.

For `COC1C(N(C)C(C)=O)CC2OC1(C)n1c3ccccc3c3c4c(c5c6ccccc6n2c5c31)C(=O)NC4` (stereo not drawn), the IC50 on Protein kinase A (setting [3]) is 59 nM.

Consider `CNC1CC2OC(C)(C1OC)n1c3ccccc3c3c4c(c5c6ccccc6n2c5c31)C(=O)N(N)C4=O` (stereo not drawn) [Compound 5], for which the results for the IC50 in the assay on HeLa S3 cells and with CoLo 320DM cells were 0.75 µg/mL (≈ 1.51 µM) and 0.59 µg/mL (≈ 1.19 µM), respectively.

`CCOC1NC(=O)c2c1c1c3ccccc3n3c1c1c2c2ccccc2n1C1CC(NC)C(OC)C3(C)O1` (stereo not drawn) [Compound 20]: the IC50 in the assay with HeLa S3 cells (setting [1]) was 0.29 µg/mL (≈ 0.568 µM).

Consider `CNC1CC2OC(C)(C1OC)n1c3ccccc3c3c4c(c5c6ccccc6n2c5c31)C(=O)NC4OC` (stereo not drawn) [Compound 11], for which the IC50 was 0.17 µg/mL (≈ 0.342 µM) with HeLa S3 cells (setting [1]), 0.14 µg/mL (≈ 0.282 µM) in the assay with CoLo 320DM cells (setting [2]) and 322 nM at Protein kinase A (setting [3]).

For the compound `COC1C(N(C)C=O)CC2OC1(C)n1c3ccccc3c3c4c(c5c6ccccc6n2c5c31)C(=O)NC4` (stereo not drawn) [Compound 3], the IC50 at Protein kinase A (setting [3]) was 20200 nM.

In the case of `CNC1CC2OC(C)(C1OC)n1c3ccccc3c3c4c(c5c6ccccc6n2c5c31)C(=O)N(C=O)C4` (stereo not drawn) [Compound 4], the IC50 stood at 0.18 µg/mL (≈ 0.364 µM) in the assay on HeLa S3 cells (setting [1]) and 0.19 µg/mL (≈ 0.384 µM) in the assay with CoLo 320DM cells (setting [2]).

As to `CNC1CC2OC(C)(C1OC)n1c3ccccc3c3c4c(c5c6ccccc6n2c5c31)C(=O)N(C)C4=O` (stereo not drawn) [Compound 14], the IC50 in the assay with HeLa S3 cells is 0.78 µg/mL (≈ 1.58 µM); in the assay with CoLo 320DM cells, more than 1 µg/mL.

By IC50 is commonly meant the concentration needed to halve the response being measured.
